Assay results reported in patent US20190343908A1, “Therapeutic Combination for the Treatment of Cancer” (Nerium Biotechnology Inc., priority 2011, published 2019).

Key:
[1] = tested on: A375 melanoma cancer cell line; assay: Crystal Violet viability assay, A375; assay type: cell-based, human; conditions: for ABSORBANCE: 0.1 μg/mL cisplatin; for Average absorbance, CVE 24 h / Average absorbance, CVE 48 h / Average absorbance, CVE 72 h: A375 Run 1
From the text: (§1) Three different viability assays were chosen to complement each other and yielded results dependent on concentration and cell line: the Methyl Tetrazolium dye assay, the Sulforhodamine B fluorescent dye assay, and the Crystal Violet dye assay.
(§2) The Sulforhodamine B and Crystal Violet assays provide information about protein and were used to complement the Methyl-Tetrazolium dye assay. […] It is used for the quantification of cellular proteins of cultured cells. The assay using Crystal Violet, a dye that binds electrostatically to proteins and stains DNA, provides a reliable, simple assay for measuring viability of cells.
(§3) The Methyl Tetrazolium, Sulforhodamine B, and Crystal Violet assays were used to assess cell viabilities. The incubation times were 24 hours, 48 hours, and 72 hours. The Nerium oleander extract Anvirzel™ (a hot water extract of oleander obtained from Salud Integral, Honduras) was tested in concentrations ranging from 0.01 ng/mL to 10 ng/mL.
(§4) Cells were detached by trypsinization (Trypsin-0.25% EDTA, Invitrogen, 25200-072) during the logarithmic phase of culture growth and plated in 96-well plates (18.000 cells/well) (Corning, Costar 359) in a final volume of 200 μl of medium per well. […] The absorbance was measured after 24 hours, 48 hours, and 72 hours of incubation.
For the Crystal Violet assay, the medium was removed from the 96-well plates, the plates rinsed with PBS (Sigma, P3813) and then the cells were […] by the addition of 10% formalin (MERCK, 1.04003.2500) for 20 minutes at RT. Formalin was removed and 0.25% aqueous crystal violet (Sigma, HT901), dissolved in water, was added for 10 minutes at RT. Unbound Crystal Violet was rinsed by washing with water and finally 33% acetic acid was added to dissolve the dye.
(§5) The optical density of each plate was measured on a μQuant spectrophotometer and the data were analyzed with Gen5 software (μQuant Biomolecular Spectrophotometer MQX200 and Gen5™ Microplate Data Collection & Analysis software, BioTek® Instruments. Inc, April 2008). Absorbance was measured at 570 nm for all assays and a second wavelength was measured in order to subtract noise. For the Methyl-Tetrazolium assay this second wavelength was 630 nm and for the Sulforhodamine B and Crystal Violet assays it was 690 nm.

[2] = tested on: HCT-15 (colorectal cancer); assay: Sulforhodamine B viability assay, HCT-15; assay type: cell-based, human; design: key to SRB Average: absorbance (optical density) at 570 nm, second wavelength subtracted; conditions: for SRB Average 24 h / SRB Average 48 h / SRB Average 72 h: HCT-15, Run 1
From the text: as §1, §2, §3, §4
For the Sulforhodamine B assay, 96-well plates were fixed by 10% trichloroacetic acid (Fluka, 91228) and were incubated at 4° C. for 1 hour. Afterwards, plates were rinsed with water and cells were stained with 0.4% Sulforhodamine B (Sigma, 341738), dissolved in 1% acetic acid (Carlo Ebra, 401422) for 15 minutes at room temperature (RT). The unbound stain was washed twice with 1% acetic acid. Finally, 10 mM Tris Buffer pH 10.5 (Sigma, T6791) was added to dissolve the dye.
as §5

N.N.[Cl][Pt][Cl] [cisplatin]
ABSORBANCE ([1]; A375, 48 h): 1.304 | ABSORBANCE ([1]; A375, 72 h): 0.663 | Average absorbance, CVE 24 h ([1]; 0.1 μg/ml CDDP): 0.607 | Average absorbance, CVE 48 h ([1]; 0.1 μg/ml CDDP): 1.304 | Average absorbance, CVE 72 h ([1]; 0.1 μg/ml CDDP): 0.663 | Average absorbance, CVE 24 h ([1]; 1 μg/ml CDDP): 0.277 | Average absorbance, CVE 48 h ([1]; 1 μg/ml CDDP): 0.396 | Average absorbance, CVE 72 h ([1]; 1 μg/ml CDDP): 0.178 | Average absorbance, CVE 24 h ([1]; 10 μg/ml CDDP): 0.32 | Average absorbance, CVE 48 h ([1]; 10 μg/ml CDDP): 0.405 | Average absorbance, CVE 72 h ([1]; 10 μg/ml CDDP): 0.282 | Average absorbance, CVE 24 h ([1]; 100 μg/ml CDDP): 0.329 | Average absorbance, CVE 48 h ([1]; 100 μg/ml CDDP): 0.288 | Average absorbance, CVE 72 h ([1]; 100 μg/ml CDDP): 0.311 | Average absorbance CVE ([1]; A375 Run 2, 24 h, 0.1 μg/ml CDDP): 0.603 | Average absorbance CVE ([1]; A375 Run 2, 24 h, 1 μg/ml CDDP): 0.197 | Average absorbance CVE ([1]; A375 Run 2, 24 h, 10 μg/ml CDDP): 0.246 | Average absorbance CVE ([1]; A375 Run 2, 24 h, 100 μg/ml CDDP): 0.241 | Average absorbance CVE ([1]; A375 Run 2, 48 h, 0.1 μg/ml CDDP): 1.204 | Average absorbance CVE ([1]; A375 Run 2, 48 h, 1 μg/ml CDDP): 0.605 | Average absorbance CVE ([1]; A375 Run 2, 48 h, 10 μg/ml CDDP): 0.514 | Average absorbance CVE ([1]; A375 Run 2, 48 h, 100 μg/ml CDDP): 0.238 | Average absorbance CVE ([1]; A375 Run 2, 72 h, 0.1 μg/ml CDDP): 1.312 | Average absorbance CVE ([1]; A375 Run 2, 72 h, 1 μg/ml CDDP): 1.001 | Average absorbance CVE ([1]; A375 Run 2, 72 h, 10 μg/ml CDDP): 0.729 | Average absorbance CVE ([1]; A375 Run 2, 72 h, 100 μg/ml CDDP): 0.293 | Average absorbance CVE ([1]; A375 Run 3, 24 h, 0.1 μg/ml CDDP): 0.856 | Average absorbance CVE ([1]; A375 Run 3, 24 h, 1 μg/ml CDDP): 0.655 | Average absorbance CVE ([1]; A375 Run 3, 24 h, 10 μg/ml CDDP): 0.529 | Average absorbance CVE ([1]; A375 Run 3, 24 h, 100 μg/ml CDDP): 0.224 | Average absorbance CVE ([1]; A375 Run 3, 48 h, 0.1 μg/ml CDDP): 0.92 | Average absorbance CVE ([1]; A375 Run 3, 48 h, 1 μg/ml CDDP): 0.375 | Average absorbance CVE ([1]; A375 Run 3, 48 h, 10 μg/ml CDDP): 0.309 | Average absorbance CVE ([1]; A375 Run 3, 48 h, 100 μg/ml CDDP): 0.252 | Average absorbance CVE ([1]; A375 Run 3, 72 h, 0.1 μg/ml CDDP): 0.961 | Average absorbance CVE ([1]; A375 Run 3, 72 h, 1 μg/ml CDDP): 0.388 | Average absorbance CVE ([1]; A375 Run 3, 72 h, 10 μg/ml CDDP): 0.344 | Average absorbance CVE ([1]; A375 Run 3, 72 h, 100 μg/ml CDDP): 0.24 | SRB Average 24 h ([2]; 0.1 μg/ml CDDP): 2.592 | SRB Average 48 h ([2]; 0.1 μg/ml CDDP): 2.747 | SRB Average 72 h ([2]; 0.1 μg/ml CDDP): 2.792 | SRB Average 24 h ([2]; 1 μg/ml CDDP): 1.974 | SRB Average 48 h ([2]; 1 μg/ml CDDP): 2.397 | SRB Average 72 h ([2]; 1 μg/ml CDDP): 1.697 | SRB Average 24 h ([2]; 10 μg/ml CDDP): 1.657 | SRB Average 48 h ([2]; 10 μg/ml CDDP): 2.449 | SRB Average 72 h ([2]; 10 μg/ml CDDP): 1.71 | SRB Average 24 h ([2]; 100 μg/ml CDDP): 1.854 | SRB Average 48 h ([2]; 100 μg/ml CDDP): 1.937 | SRB Average 72 h ([2]; 100 μg/ml CDDP): 1.634 | SRB Average ([2]; Run 2, 24 h, 0.1 μg/ml CDDP): 2.271 | SRB Average ([2]; Run 2, 24 h, 1 μg/ml CDDP): 1.762 | SRB Average ([2]; Run 2, 24 h, 10 μg/ml CDDP): 2.09 | SRB Average ([2]; Run 2, 24 h, 100 μg/ml CDDP): 1.78 | SRB Average ([2]; Run 2, 48 h, 0.1 μg/ml CDDP): 2.54 | SRB Average ([2]; Run 2, 48 h, 1 μg/ml CDDP): 2.198 | SRB Average ([2]; Run 2, 48 h, 10 μg/ml CDDP): 2.456 | SRB Average ([2]; Run 2, 48 h, 100 μg/ml CDDP): 2.169 | SRB Average ([2]; Run 2, 72 h, 0.1 μg/ml CDDP): 2.797 | SRB Average ([2]; Run 2, 72 h, 1 μg/ml CDDP): 2.068 | SRB Average ([2]; Run 2, 72 h, 10 μg/ml CDDP): 1.85 | SRB Average ([2]; Run 2, 72 h, 100 μg/ml CDDP): 1.585 | SRB Average ([2]; Run 3, 24 h, 0.1 μg/ml CDDP): 2.578 | SRB Average ([2]; Run 3, 24 h, 1 μg/ml CDDP): 1.713 | SRB Average ([2]; Run 3, 24 h, 10 μg/ml CDDP): 1.941 | SRB Average ([2]; Run 3, 24 h, 100 μg/ml CDDP): 1.254 | SRB Average ([2]; Run 3, 48 h, 0.1 μg/ml CDDP): 2.768 | SRB Average ([2]; Run 3, 48 h, 1 μg/ml CDDP): 1.845 | SRB Average ([2]; Run 3, 48 h, 10 μg/ml CDDP): 2.104 | SRB Average ([2]; Run 3, 48 h, 100 μg/ml CDDP): 1.77 | SRB Average ([2]; Run 3, 72 h, 0.1 μg/ml CDDP): 2.96 | SRB Average ([2]; Run 3, 72 h, 1 μg/ml CDDP): 1.752 | SRB Average ([2]; Run 3, 72 h, 10 μg/ml CDDP): 2.063 | SRB Average ([2]; Run 3, 72 h, 100 μg/ml CDDP): 1.935
